Results taken from patent US20240228480A1, “PROCESSES FOR PREPARING PYRROLOPYRIDINE-ANILINE COMPOUNDS” (NFLECTION THERAPEUTICS, INC., priority 2021, published 2024).
Entries after “also recorded” stand apart in the source; their conditions may differ.

Assays:
[1] = clinical trials; cited from earlier work
[2] = Stability of Compound (II) suspended in various solvents (slurry experiment, HPLC area %); type: physicochemical
Excerpt: Therefore, the first course of action was to find a suitable solvent in which to suspend compound (II) for the addition to the first mixture of step 6a).

Which Side effects exhibited [1] does the source give for `O=C(NOC[C@H](O)CO)c1ccc(F)c(F)c1Nc1ccc(I)cc1F` [PD0325901] here?
Its Side effects exhibited is “neurological side effects associated with ataxia, confusion, and syncope; also recorded: one or more neurological side effects associated with ataxia, confusion, and syncope”.

Which results are given for `Cn1c(Nc2ccc(I)cc2F)c(C(=O)Cl)c2cccnc21` [Compound (II)]?
Area % t = 10 min ([2]; solvent 2-Me-THF): 88.0 Area %; Area % t = 2 h ([2]; solvent 2-Me-THF): 77.8 Area %; Area % t = 17 h ([2]; solvent 2-Me-THF): 75.3 Area %; Area % t = 10 min ([2]; solvent DCM): 91.4 Area %; Area % t = 2 h ([2]; solvent DCM): 90.5 Area %; Area % t = 17 h ([2]; solvent DCM): 85.3 Area %; Area % t = 10 min ([2]; solvent Heptane): *68.6 Area %; Area % t = 2 h ([2]; solvent Heptane): 88.4 Area %; Area % t = 17 h ([2]; solvent Heptane): 91.8 Area %; Area % t = 10 min ([2]; solvent IPAc): *81.6 Area %; Area % t = 2 h ([2]; solvent IPAc): 93.3 Area %; Area % t = 17 h ([2]; solvent IPAc): 90.4 Area %; Area % t = 10 min ([2]; solvent MTBE): 92.9 Area %; Area % t = 2 h ([2]; solvent MTBE): *81.6 Area %; Area % t = 17 h ([2]; solvent MTBE): 87.2 Area %; Area % t = 10 min ([2]; solvent MeCN): 87.4 Area %; Area % t = 2 h ([2]; solvent MeCN): 79.2 Area %; Area % t = 17 h ([2]; solvent MeCN): 65.5 Area %; Area % t = 10 min ([2]; solvent THF): 90.0 Area %; Area % t = 2 h ([2]; solvent THF): 83.7 Area %; Area % t = 17 h ([2]; solvent THF): 63.7 Area %; Decomposition when suspended in THF ([2]; suspended in THF for a period of time (e.g., >10 h)): Decomposition of compound (II) was found to occur
